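Five concentrations, 48 hours, 96-well plates. The concentration for 50% growth inhibition is given as GI50.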 Calls of active or inactive are those of the source. No stated cut-off is given here; in the data, active = GI50 up to about 1.1 µM and inactive = higher.

Holding throughout (assay): inhibition of tumour cell growth, NCI panel, 48 h
Test [1] relates to Malme-3M.
For test [2], the system named is HOP-62.
Test [3] concerns A498.
Test [4] has as its system U-251.
Test [5] has as its system SF-268.
The subject of test [6] is OVCAR-4.
Test [7] deals with NCI-H460.
Test [8] deals with SR.
Test [9] concerns K562.
The subject of test [10] is SK-MEL-28.
Test [11] deals with NCI-H522.
The test system of test [12] is HT-29.
In test [13] the test system is M14.
The subject of test [14] is HOP-92.
In test [15] the test system is 786-0.
The test system of test [16] is HCC 2998.
The test system of test [17] is SNB-75.

`N#CC1(C#N)C(C#N)(C#N)C12CCCCCC2`: the GI50 in test [1] was 16.4 µM (inactive); in [2] it was > 52.8 µM (inactive); in test [3], 18.5 µM (inactive); in test [4], 14.1 µM (inactive); in test [5], 22.5 µM (inactive); in test [6] it was 16.3 µM (inactive). Moreover, the GI50 is > 47.1 µM (inactive) in test [7]; 22.1 µM (inactive) in test [8]; 3.1 µM (inactive) in test [9]; 8.57 µM (inactive) in [10]; 2.77 µM (inactive) in test [11]; 17.2 µM (inactive) in test [12]. Moreover, the GI50 was 2.81 µM (inactive) in [13]; 15.4 µM (inactive) in test [14]; 6.59 µM (inactive) in test [15]; 19.6 µM (inactive) in test [16]; 22.9 µM (inactive) in test [17].

Take `O=C(/C=C/c1c(O)ccc2ccccc12)c1cccc2ccccc12`: the GI50 in test [1] is > 87.5 µM (inactive); in test [2], > 100 µM (inactive); in test [3], > 100 µM (inactive); in test [4] it was > 71.9 µM (inactive); in test [5], > 100 µM (inactive); in test [7], > 100 µM (inactive). Moreover, the GI50 in test [8] was 36 µM (inactive); in [9] it was 51.5 µM (inactive); in test [10] it was > 100 µM (inactive); in test [11], 27.5 µM (inactive); in [12], > 72.4 µM (inactive); in test [13], > 100 µM (inactive). Besides, the GI50 in test [14] is > 100 µM (inactive); in [15], > 69.7 µM (inactive); in [16], > 100 µM (inactive); in test [17], > 52.4 µM (inactive).

With `CCCCCCCCCCCCCCCCCCC1=C(O)C(=O)C=C(OC)C1=O`, the GI50 in test [1] was 64.9 µM (inactive); in test [2], 34.3 µM (inactive); in [3], > 100 µM (inactive); in test [4] it was 39 µM (inactive); in test [5] it was 38.5 µM (inactive); in [6] it was 46.7 µM (inactive). The GI50 in test [7] was 88.7 µM (inactive); in [8] it was 43.8 µM (inactive); in [10], 36.4 µM (inactive); in test [11], 28.4 µM (inactive); in [12], 88.9 µM (inactive); in test [13] it was 53.2 µM (inactive). Besides, the GI50 in test [14] is 80.4 µM (inactive); in test [15] it was 34.3 µM (inactive); in test [16], 38.3 µM (inactive); in test [17], 30.6 µM (inactive).

Consider `CCCCCCCC(=O)OC[C@@H](C[As](=O)(O)O)OC(=O)CCCCCCC`, for which the GI50 was 14.1 µM (inactive) in test [1]; 18.7 µM (inactive) in test [2]; 11.2 µM (inactive) in test [3]; 5.74 µM (inactive) in test [4]; 5.85 µM (inactive) in test [5]; 11.9 µM (inactive) in test [6]. For the same compound, the GI50 was 4.95 µM (inactive) in test [8]; 13.8 µM (inactive) in [9]; 13.5 µM (inactive) in test [10]; 1.56 µM (inactive) in test [11]; 14.1 µM (inactive) in test [12]; 14.9 µM (inactive) in [13]. The GI50 is 17.2 µM (inactive) in [14], 12.1 µM (inactive) in [15], 15.7 µM (inactive) in test [16] and 11.5 µM (inactive) in [17].

On to `Cc1ccc(SC(CCC(Sc2ccc(C)cc2)Sc2ccc(C)cc2)Sc2ccc(C)cc2)cc1`, for which the GI50 in [2], in test [3], in test [4], in test [5], in test [6] and in test [7] was > 100 µM (inactive) each time. Further, the GI50 was > 100 µM (inactive) in test [8]; > 100 µM (inactive) in test [9]; > 100 µM (inactive) in test [10]; > 100 µM (inactive) in [11]; > 100 µM (inactive) in [13]; 71.1 µM (inactive) in test [14]. Besides, the GI50 in test [15] and in test [17] was > 100 µM (inactive) in each case.

`N#CC1=C(N)n2c(s/c(=C\c3ccc(Cl)cc3)c2=O)=C(c2nc3ccccc3[nH]2)C1c1ccc(Cl)cc1` (configuration not stated): the GI50 in [1] is 2.25 µM (inactive); in [2], 2.23 µM (inactive); in [3], 1.38 µM (inactive); in test [4], 1.48 µM (inactive); in test [5], 2.64 µM (inactive); in test [6], 2.01 µM (inactive). Also, the GI50 in [7] was 1.85 µM (inactive); in test [8] it was 2.17 µM (inactive); in test [9] it was 1.91 µM (inactive); in test [10] it was 1.53 µM (inactive); in [11] it was 1.96 µM (inactive); in test [13] it was 3.62 µM (inactive). For the same compound, the GI50 in test [14] is 0.203 µM (active); in test [15], 2.23 µM (inactive); in test [16], 0.411 µM (active); in [17] it was 2.77 µM (inactive).

As to `CCCNC(=O)Nc1c([N+](=O)[O-])cc(C(F)(F)F)cc1[N+](=O)[O-]`, the GI50 in test [2] was > 100 µM (inactive); in test [3], > 100 µM (inactive); in [4] it was > 100 µM (inactive); in test [5], > 100 µM (inactive); in test [6], 20.3 µM (inactive); in test [7], 42.1 µM (inactive). Besides, the GI50 in test [8] is 92.9 µM (inactive); in test [9] it was 47.1 µM (inactive); in [10], > 100 µM (inactive); in test [11], 31.3 µM (inactive); in test [12] it was 37.4 µM (inactive); in test [13], 86.3 µM (inactive). Besides, the GI50 was > 100 µM (inactive) in test [14], > 100 µM (inactive) in test [15] and 34 µM (inactive) in test [17].

Take `COc1ccc(-c2ccc(CC(=O)O)cc2)cc1OC`: the GI50 in test [1] was > 100 µM (inactive); in test [2], 95.5 µM (inactive); in test [3] it was > 100 µM (inactive); in test [4], > 100 µM (inactive); in test [5], > 100 µM (inactive); in test [6], > 100 µM (inactive). The GI50 in test [7], in test [8], in test [9], in [10], in test [11] and in test [12] was > 100 µM (inactive) in each case. In addition, the GI50 in test [13] was > 100 µM (inactive); in test [14], > 100 µM (inactive); in test [15], > 100 µM (inactive); in [17], 97.5 µM (inactive).

For the compound `COc1ccccc1/N=N/c1c(-c2ccccc2)nn(C(=O)CC(=O)Nc2ccccc2Cl)c1-c1ccccc1`, the GI50 in [1], in [2], in test [3], in [4], in [5] and in [6] was > 100 µM (inactive) each time. For the same compound, the GI50 in test [7] is > 100 µM (inactive); in test [8], > 100 µM (inactive); in [9], > 100 µM (inactive); in [10] it was > 100 µM (inactive); in [11] it was > 100 µM (inactive); in [12], 99.3 µM (inactive). In addition, the GI50 in test [13], in test [15], in test [16] and in test [17] was > 100 µM (inactive) throughout.
